The values below come from the METLIN SMRT retention time set (Domingo-Almenara et al. 2019).

This data set in a line: gradient 5% acetonitrile 3 min, to 50% in 2 min, to 85% in 15 min, held 3 min, 100 µL/min. The note with it: column: Zorbax Extend-C18 2.1 x 50 mm; eluents: water / acetonitrile, 0.1% formic acid. Put shortly:
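The system's dead and dwell volumes were 40 μL and 900 μL, with a Zorbax Extend-C18 column (2.1 × 50 mm, 1.8 μm) run at 100 μL/min in water and acetonitrile containing 0.1% formic acid each. Pure standards were analyzed in mixtures of ~100 molecules by HPLC–quadrupole time-of-flight mass spectrometry in positive and negative ionization mode. Retention time was assigned from computationally picked, manually inspected adduct peaks.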
Regarding `Cc1ccc(C)c(-c2nc3ccccc3c(C(=O)N3CCN(c4ncccn4)CC3)c2C)c1`, the RP-LC retention time was 903 s.
On to `COc1cc(OC)cc(C(=O)N2C[C@@H]3C[C@H]2C[C@@H]3NS(=O)(=O)c2ccccc2)c1`, for which the RP-LC retention time turned out to be 792 s.
`O=C(Cn1cccc(-c2nc(-c3ccc(Cl)cc3)no2)c1=O)Nc1ccc(F)cc1` registered an RP-LC retention time of 956 s.
For `Clc1ccc(-c2csc(NCc3ccccc3)n2)cc1` the value was 1170 s; for `Cc1c(CNCc2ccco2)c(C(=O)O)c(C)n1Cc1cccc(Cl)c1`, 702 s.
`CCOc1ccc(S(=O)(=O)N2CCC(C(=O)NCc3ccncc3)CC2)cc1C` had an RP-LC retention time of 662 s.
Regarding `Cc1oc(-c2[nH]ncc2C(=O)N2CCCC2)cc1S(=O)(=O)Nc1ccc(Cl)cc1`, the RP-LC retention time came to 739 s.
For `Cc1cccc(-c2nc(N3CCOCC3)ncc2C(=O)O)c1`, the RP-LC retention time came to 787 s.
`Cn1c(=O)n(CCN2CCCCC2)c(=O)c2c1nc1n2CCCN1c1ccc(Cl)cc1` showed an RP-LC retention time of 668 s.
In turn, `CCn1nccc1C(=O)NCCn1c(C)cnc1C1CCC1` had an RP-LC retention time of 574 s.
Consider `Cc1ccc(NC(=O)CN2CCC(c3nc(-c4cccs4)no3)CC2)c(Cl)c1`, for which the RP-LC retention time came out at 777 s.
The result for `CCOc1ccccc1C(=O)N1CCCC1c1nc(-c2ccccc2OC)no1` (stereo not drawn) reads 886 s.
Consider `O=C(Cn1nc2c(c1NC(=O)c1cnccn1)CSC2)NCc1ccco1`, for which the RP-LC retention time was found to be 664 s.
With `O=C(Cn1c(=O)c2cc(-c3cccs3)nn2c2ncccc21)Nc1ccc(F)cc1`, the RP-LC retention time stood at 870 s.
`CCc1ccccc1NC(=O)CN1C(=O)CCCc2cc(S(=O)(=O)N3CCCC3)ccc21`: the RP-LC retention time worked out at 845 s.
Turning to `CCCCCn1c(=O)c2ccccc2n(Cc2nc(-c3ccc(SC)cc3)no2)c1=O`, the RP-LC retention time is 1290 s.
`COc1ccc(-c2ncc3c(n2)CCN(C(=O)Nc2cc(Cl)ccc2C)C3)cc1` came in with an RP-LC retention time of 984 s.
The result for `CCc1cc(=O)n(CC(=O)Nc2ccc(F)cc2C)c(N)n1` reads 599 s; that for `CC(=O)Nc1ccc(C(=O)N2CCN(c3ccc(F)cc3)CC2)c(N2CCCCC2)c1`, 833 s.
For `O=C(C1CCN(c2cncnc2N2CCCC2)CC1)N1CCN(c2ccc(F)cc2)CC1` the value was 670 s.
Molecule `CC(NC(=O)c1nnc(-c2ccc(S(=O)(=O)N(C)C)cc2)o1)c1ccccc1` (stereo not drawn) displayed an RP-LC retention time of 840 s.
In turn, `O=C(Nc1cccc(OCc2nnc(-c3ccccc3)o2)c1)C1CCCC1` returned an RP-LC retention time of 943 s.
The result for `COc1cccc(N2N=NC3C(=O)N(c4ccc(OC)c(OC)c4)C(=O)C32)c1` (stereo not drawn) reads 852 s; that for `CCn1c(SCC(=O)Nc2nc(-c3ccc(C)cc3)cs2)nnc1-c1cc2ccccc2o1`, 1140 s; that for `O=C(c1cc2occc2c(Nc2ccc(Cl)cc2)n1)N1CCN(C(=O)c2ccco2)CC1`, 861 s.
For `COCc1nnc(NC(=O)C2CC(=O)N(CCc3c[nH]c4ccc(Cl)cc34)C2)s1` (stereo not drawn) the value was 724 s; for `CSc1cccc(NC(=O)C2CCC(=O)N2S(=O)(=O)c2ccc(C)cc2)c1` (stereo not drawn), 954 s; for `Cc1ccc(S(=O)(=O)NCCSc2ncccn2)cc1`, 727 s.
For the molecule `Cc1[nH]c(C(=O)N2CCC(CC(=O)NCCc3c[nH]c4ccccc34)CC2)c(C)c1C`, the RP-LC retention time came to 674 s.
`Cc1ccc2[nH]c(=O)c(CCC(=O)NC(C)c3cn(C)nc3C)cc2c1` (stereo not drawn) had an RP-LC retention time of 618 s.
Molecule `O=C(C(=O)N1CCc2ccccc2C1)c1c[nH]c2ccccc12` displayed an RP-LC retention time of 836 s.
The result for `O=C(Nc1ccc2c(c1)OCCO2)N1CC[C@@H]2CN(Cc3ccccc3)[C@@H]2C1` reads 796 s; that for `COCC(=O)Nc1nc(-c2ccc3c(c2)NC(=O)CO3)c(C)s1`, 705 s.
For `CC(=O)Nc1cc(C(=O)NC2CCCC2)c2ccc(C)nc2c1` the value was 600 s; for `Cc1cccc(C(=O)Nc2nc(-c3ccc4c(c3)NC(=O)C(C)O4)cs2)c1` (stereo not drawn), 962 s.
As for `Cc1cc(F)ccc1NC(=O)C1CCN(c2cnc3ccccc3n2)CC1`, the RP-LC retention time is 780 s.
The molecule `CSc1ccc(CNC(=O)c2[nH]c3cc(C)sc3c2CN2CCOCC2)cc1` had an RP-LC retention time of 709 s.
The result for `Cc1cc(C2CCCN2C(=O)Nc2ccc(C)c(F)c2)on1` (stereo not drawn) reads 822 s; that for `CC1CCN(c2nn(CC(=O)NC3CCc4ccccc43)c(=O)c3ccccc23)CC1` (stereo not drawn), 1140 s.
The result for `CCN(CC)S(=O)(=O)c1ccc(NC(=O)N2CCCC(C(=O)Nc3ccc(OC)cc3)C2)s1` (stereo not drawn) reads 884 s; that for `COc1ncc(C(=O)N2CCCC2)cn1`, 589 s.
Turning to `COc1ccc(C2(C(=O)N3CCN(C(=O)c4cc(-c5ccncc5)n[nH]4)CC3)CC2)cc1`, the RP-LC retention time is 610 s.
Take `Cc1ccc(-c2nnc(Cc3nc(-c4cccc(Br)c4)no3)o2)cc1C`: the RP-LC retention time stood at 1270 s.
The result for `Cc1ccccc1-c1noc(CN2C(=O)C(C)Oc3ccccc32)n1` (stereo not drawn) reads 1110 s; that for `CCc1nc2cc(N3CCC(C(=O)N4CCN(CC)CC4)CC3)cnc2nc1CC`, 590 s.
The molecule `O=S(=O)(NC1CCCC1)c1ccc(-c2nnc(C3CCC3)o2)o1` returned an RP-LC retention time of 900 s.
For `Cc1ccccc1CNC(=O)c1ccc2c(c1)n(C)c(=O)c1ccnn12` the value was 739 s.
In turn, `Cc1cc(S(=O)(=O)N2CCC3(CC2)CCC(O)(CN2CCCC2)CC3)ccc1Cl` displayed an RP-LC retention time of 706 s.
The result for `O=C(Nc1cnc(N2CCCC2)nc1)c1ccccc1` reads 676 s; that for `COc1ccc(/C(=N/O)C(c2ccc(OC)cc2)C2C(=O)Oc3ccccc32)cc1` (stereo not drawn), 840 s; that for `CCc1nnc(-c2ccc3ccn(CC(=O)NCCc4sccc4C)c3c2)o1`, 1170 s.
For `Cc1cccc(CNC(=O)C2CCN(S(=O)(=O)c3cc(C(=O)N4CCCC4)n(C)c3)CC2)c1` the value was 747 s.
On to `Cc1ccc2c(c1)OCC(=O)N2Cc1nc(-c2ccc(F)cc2)no1`, for which the RP-LC retention time is 970 s.
The result for `Cc1ccc(NC(=O)Cn2nc3c(Oc4cccc(F)c4)nccn3c2=O)cc1F` reads 894 s; that for `O=C(NC1CCCC1)c1cn(Cc2ccccc2)cc2c(=O)n(-c3ccccc3)nc1-2`, 1060 s.
For `CC1CCN(C(=O)C2CCN(S(=O)(=O)c3cc(C(=O)N4CCCC4)n(C)c3)CC2)CC1` the value was 750 s; for `COc1cccc(C(=O)NC2(C(F)(F)F)C(=O)N(C3CCCC3)C(C)=C2C(C)=O)c1` (stereo not drawn), 964 s; for `O=C1NC2(CCN(C(=O)c3ccccc3)CC2)N=C1c1ccc(Br)cc1`, 861 s.
The result for `Cc1cccc(CN2CC=C(C(=O)N3CCN(c4cccc(C)c4)CC3)CC2)c1` reads 706 s; that for `COCCCNC(=O)Cn1ccc2c(SCc3ccccc3)nccc21`, 636 s.
With `O=C(NC1CC1)C1CCN(Cc2cc3ccccc3n2Cc2ccccc2)CC1`, the RP-LC retention time was determined as 694 s.
For `CCC(=O)N1CCCN(C2=NS(=O)(=O)C(c3ccc(C)cc3)=C2C)CC1` the value was 742 s.
In the case of `O=C(CN1C(=O)C(C(=O)N2CCCCCC2)Sc2ccccc21)N1CCN(c2ccccc2)CC1` (stereo not drawn), the RP-LC retention time was determined as 663 s.
For `NC(=O)c1nsc2c(=O)n(CC(=O)NC3CCCC3)cnc12` the value was 596 s.
Regarding `NC(=O)C1CCN(c2cc(-c3nc(-c4ccccc4)no3)c3ccccc3n2)CC1`, the RP-LC retention time was 765 s.
Molecule `CC(C)NCc1ccc(-c2cccc(Cl)c2)o1` showed an RP-LC retention time of 691 s.
Molecule `c1ccn(CCc2ccncc2)c1` yielded an RP-LC retention time of 616 s.
The result for `Cc1ccc(S(=O)(=O)N2CC(=O)N(CCC(C)C)C(C)(C(=O)NCc3ccccc3)C2)cc1` (stereo not drawn) reads 1040 s; that for `CCn1cc(CCNC(=O)Nc2ccc3c(c2)OCCO3)c2cccnc21`, 661 s.
The result for `CN1CCOc2ccc(NC(=O)c3cc(-c4ccc(F)cc4)n[nH]3)cc2C1=O` reads 686 s.
For `COc1cccc(-n2c(N3CCCC(C(=O)NCC(C)C)C3)nc3ccsc3c2=O)c1` (stereo not drawn) the value was 818 s; for `O=C(Nc1ccccc1F)c1cccn1Cc1noc(-c2ccccc2)n1`, 1010 s.
Molecule `Cc1cccc(N2CCN(C(=O)C3CCN(S(=O)(=O)c4cn(C(C)C)cn4)CC3)CC2)c1C` gave an RP-LC retention time of 929 s.
`O=C(c1ccc(S(=O)(=O)c2cccc(Cl)c2)c([N+](=O)[O-])c1)N1CCN(c2ccccn2)CC1` returned an RP-LC retention time of 722 s.
`COc1ccc(-c2csc(NC(=O)CCn3c(=O)sc4ccccc43)n2)cc1OC`: the RP-LC retention time was 917 s.
The result for `CCc1nc2cc(-c3noc(-c4ccc(F)c(F)c4)n3)ccc2o1` reads 1200 s; that for `CCc1cc(=O)n(CC(=O)Nc2ccc(F)c(Cl)c2)c(N2CCOCC2)n1`, 828 s.
The result for `O=C(Cn1ccc2c(SCc3ccc(F)cc3)nccc21)N1CCN(c2ccccc2)CC1` reads 782 s.
